Source: US10738009B2, “Pyridone amides as modulators of sodium channels” (VERTEX PHARMACEUTICALS INCORPORATED, priority 2013, dated 2020)

Experiments:
[1] = Microsomal stability assay, rat liver microsomes (RLM); assay type: in vitro ADME; conditions: rat liver microsomes 0.5 mg/mL, 1 uM substrate, 2 mM NADPH, 37° C., vs time zero control
Experimental: (§1) Microsomal Stability Assay. Compounds were incubated at 37° C. and shaken for 30 minutes in a phosphate buffered solution with either rat or human liver microsomes and the cofactor NADPH. A time zero control was similarly prepared, however with NADPH excluded. The final incubation concentrations were 1 uM substrate (0.2% DMSO), 0.5 mg/mL liver microsome, 2 mM NADPH, and 0.1 M phosphate. Reactions were quenched and proteins precipitated with the addition of 2 volume equivalents of ice cold acetonitrile containing an internal standard. Following a centrifugation step, aliquots from the quenched incubations were further diluted with 4 volume equivalents of a 50% aqueous methanol solution and then subjected to LC/MS/MS analysis for quantitation of parent compound. Microsome stability values were calculated as the percent of substrate remaining after 30 minutes referenced against the time zero control.
(§2) Microsomal stability in rat and human liver microsomes were determined for selected compounds of the present invention using the above assay. Table 4 provides the human liver microsomes (“HLM”) and rat liver microsomes (“RLM”) stability data as the percent of compound remaining after 30 minutes referenced against the time zero control.

[2] = Microsomal stability assay, human liver microsomes (HLM); assay type: in vitro ADME; conditions: human liver microsomes 0.5 mg/mL, 1 uM substrate, 2 mM NADPH, 37° C., vs time zero control
Experimental: as §1, §2

| Structure (SMILES) | RLM (% remaining @ 30 minutes) [1] | HLM (% remaining @ 30 minutes) [2] |
| --- | --- | --- |
| O=C(Nc1cc[nH]c(=O)c1)c1cc(OC(F)(F)F)ccc1Oc1ccc(F)cc1Cl [Compound 37, 2-(2-chloro-4-fluorophenoxy)-N-(2-oxo-1,2-dihydropyridin-4-yl)-5-(trifluoromethoxy)benzamide] | 97% | 100% |
| COc1cc(F)ccc1Oc1cc(Cl)c(Cl)cc1C(=O)Nc1cc[nH]c(=O)c1 [Compound 114, 4,5-dichloro-2-(4-fluoro-2-methoxyphenoxy)-N-(2-oxo-1,2-dihydropyridin-4-yl)benzamide] | 82% | 91% |
| O=C(Nc1cc[nH]c(=O)c1)c1ccc(C(F)(F)F)cc1OCC1CCCC1 [Compound 120, 2-(cyclopentylmethoxy)-N-(2-oxo-1,2-dihydropyridin-4-yl)-4-(trifluoromethyl)benzamide] | 79% | 87% |
| Cc1cc(F)ccc1Oc1cc(C(F)(F)F)ccc1C(=O)Nc1cc[nH]c(=O)c1 [Compound 10, 2-(4-fluoro-2-methylphenoxy)-N-(2-oxo-1,2-dihydropyridin-4-yl)-4-(trifluoromethyl)benzamide] | 82% | 93% |
| O=C(Nc1cc[nH]c(=O)c1)c1cc(F)ccc1Oc1ccc(OC(F)(F)F)cc1 [Compound 101, 5-fluoro-N-(2-oxo-1,2-dihydropyridin-4-yl)-2-(4-(trifluoromethoxy)phenoxy)benzamide] | 89% | 97% |
| O=C(Nc1cc[nH]c(=O)c1)c1ccc(C(F)(F)F)cc1Oc1ccc(OC(F)F)cc1 [Compound 82, 2-(4-(difluoromethoxy)phenoxy)-N-(2-oxo-1,2-dihydropyridin-4-yl)-4-(trifluoromethyl)benzamide] | 98% |  |
| COCCOc1ccc(Oc2cc(C(F)(F)F)ccc2C(=O)Nc2cc[nH]c(=O)c2)cc1 [Compound 8, 2-(4-(2-methoxyethoxy)phenoxy)-N-(2-oxo-1,2-dihydropyridin-4-yl)-4-(trifluoromethyl)benzamide] | 86% | 90% |
| O=C(Nc1cc[nH]c(=O)c1)c1cc(Cl)ccc1Oc1ccc(F)cc1Cl [Compound 66, 5-chloro-2-(2-chloro-4-fluorophenoxy)-N-(2-oxo-1,2-dihydropyridin-4-yl)benzamide] |  | 100% |
| O=C(Nc1cc[nH]c(=O)c1)c1cc(C(F)(F)F)ccc1Oc1ccccc1OC(F)(F)F [Compound 75, N-(2-oxo-1,2-dihydropyridin-4-yl)-2-(2-(trifluoromethoxy)phenoxy)-5-(trifluoromethyl)benzamide] | 95% | 90% |
| Cc1cc(F)ccc1Oc1ccc(C(F)(F)F)cc1C(=O)Nc1cc[nH]c(=O)c1 [Compound 31, 2-(4-fluoro-2-methylphenoxy)-N-(2-oxo-1,2-dihydropyridin-4-yl)-5-(trifluoromethyl)benzamide] | 91% | 92% |
| O=C(Nc1cc[nH]c(=O)c1)c1ccc(C(F)(F)F)cc1Oc1ccc(F)cc1F [Compound 7, 2-(2,4-difluorophenoxy)-N-(2-oxo-1,2-dihydropyridin-4-yl)-4-(trifluoromethyl)benzamide] | 99% | 97% |
| O=C(Nc1cc[nH]c(=O)c1)c1cc(C(F)(F)F)ccc1Oc1ccc(F)cc1 [Compound 2, 2-(4-fluorophenoxy)-N-(2-oxo-1,2-dihydropyridin-4-yl)-5-(trifluoromethyl)benzamide] |  | 100% |
| CCOc1ccc(Oc2ccc(C(F)(F)F)cc2C(=O)Nc2cc[nH]c(=O)c2)cc1 [Compound 44, 2-(4-ethoxyphenoxy)-N-(2-oxo-1,2-dihydropyridin-4-yl)-5-(trifluoromethyl)benzamide] | 84% | 93% |
| Cc1ccccc1Oc1ccc(C(F)(F)F)cc1C(=O)Nc1cc[nH]c(=O)c1 [Compound 28, N-(2-oxo-1,2-dihydropyridin-4-yl)-2-(o-tolyloxy)-5-(trifluoromethyl)benzamide] | 70% | 79% |
| O=C(Nc1cc[nH]c(=O)c1)c1ccc(C(F)(F)F)cc1OCCCC(F)(F)F [Compound 123, N-(2-oxo-1,2-dihydropyridin-4-yl)-2-(4,4,4-trifluorobutoxy)-4-(trifluoromethyl)benzamide] | 98% |  |
| COc1cc(F)ccc1Oc1cc(C(F)(F)C(F)(F)F)ccc1C(=O)Nc1cc[nH]c(=O)c1 [Compound 111, 2-(4-fluoro-2-methoxyphenoxy)-N-(2-oxo-1,2-dihydropyridin-4-yl)-4-(perfluoroethyl)benzamide] | 90% | 91% |
| Cc1cc(F)ccc1Oc1ccc(Cl)cc1C(=O)Nc1cc[nH]c(=O)c1 [Compound 68, 5-chloro-2-(4-fluoro-2-methylphenoxy)-N-(2-oxo-1,2-dihydropyridin-4-yl)benzamide] | 72% | 98% |
| O=C(Nc1cc[nH]c(=O)c1)c1cc(C(F)(F)F)ccc1Oc1ccccc1OC(F)F [Compound 76, 2-(2-(difluoromethoxy)phenoxy)-N-(2-oxo-1,2-dihydropyridin-4-yl)-5-(trifluoromethyl)benzamide] | 93% | 97% |
| CC(C)(C)c1ccc(C(=O)Nc2ccc(=O)[nH]c2)c(Oc2ccc(C(F)(F)F)nc2)c1 [Compound 142, 4-(tert-butyl)-N-(6-oxo-1,6-dihydropyridin-3-yl)-2-((6-(trifluoromethyl)pyridin-3-yl)oxy)benzamide] | 50% | 38% |
| O=C(Nc1cc[nH]c(=O)c1)c1cc(OC(F)(F)F)ccc1Oc1ccc(F)cc1F [Compound 33, 2-(2,4-difluorophenoxy)-N-(2-oxo-1,2-dihydropyridin-4-yl)-5-(trifluoromethoxy)benzamide] | 110% | 100% |
| O=C(Nc1cc[nH]c(=O)c1)c1c(Oc2ccc(F)cc2F)cc(C(F)(F)F)cc1C(F)(F)F [Compound 152, 2-(2,4-difluorophenoxy)-N-(2-oxo-1,2-dihydropyridin-4-yl)-4,6-bis(trifluoromethyl)benzamide] | 100% |  |
| O=C(Nc1cc[nH]c(=O)c1)c1cc(F)c(Cl)cc1Oc1ccc(F)cc1Cl [Compound 109, 4-chloro-2-(2-chloro-4-fluorophenoxy)-5-fluoro-N-(2-oxo-1,2-dihydropyridin-4-yl)benzamide] | 100% |  |
| Cc1cc(F)ccc1Oc1cc(Cl)ccc1C(=O)Nc1cc[nH]c(=O)c1 [Compound 20, 4-chloro-2-(4-fluoro-2-methylphenoxy)-N-(2-oxo-1,2-dihydropyridin-4-yl)benzamide] | 88% |  |
| O=C(Nc1cc[nH]c(=O)c1)c1ccc(C(F)(F)C(F)(F)F)cc1Oc1ccc(F)cc1 [Compound 88, 2-(4-fluorophenoxy)-N-(2-oxo-1,2-dihydropyridin-4-yl)-4-(perfluoroethyl)benzamide] |  | 100% |
| O=C(Nc1cc[nH]c(=O)c1)c1cc(C(F)(F)F)ccc1Oc1ccc(OC(F)(F)F)cc1 [Compound 72, N-(2-oxo-1,2-dihydropyridin-4-yl)-2-(4-(trifluoromethoxy)phenoxy)-5-(trifluoromethyl)benzamide] |  | 100% |
| COc1cc(F)ccc1Oc1ccc(C(F)(F)F)cc1C(=O)Nc1cc[nH]c(=O)c1 [Compound 30, 2-(4-fluoro-2-methoxyphenoxy)-N-(2-oxo-1,2-dihydropyridin-4-yl)-5-(trifluoromethyl)benzamide] | 78% | 76% |
| COc1ccc(Oc2cc(Cl)c(Cl)cc2C(=O)Nc2cc[nH]c(=O)c2)cc1F [Compound 115, 4,5-dichloro-2-(3-fluoro-4-methoxyphenoxy)-N-(2-oxo-1,2-dihydropyridin-4-yl)benzamide] | 95% |  |
| O=C(Nc1cc[nH]c(=O)c1)c1ccc(C(F)(F)F)cc1Oc1ccc(OC(F)(F)F)cc1 [Compound 79, N-(2-oxo-1,2-dihydropyridin-4-yl)-2-(4-(trifluoromethoxy)phenoxy)-4-(trifluoromethyl)benzamide] | 100% |  |
